Test results reported in patent US11578055B2, “Triazacyclododecansulfonamide (“TCD”)-based protein secretion inhibitors” (KEZAR LIFE SCIENCES, priority 2018, dated 2023).
pEC50, pIC50: −log10 of the molar value. Counter-ions that a name gives are not always drawn.

Columns and labels:
[1] = system: full length PD1 (amino acids 1-288) fused to Firefly Luciferase; test: Dox Induced PD1-FL-Gluc Assay; format: cell-based; conditions: 24 hr, 293FRT/TO; read-out: 24 hr Dox Inducible PD1FLFluc 293FRT/TO: Mean IC50
Excerpt: FIp-In 293 T-REx™ cells were transfected with pcDNA™5/FRT/TO plasmid inserted with cDNA encoding Firefly Luciferase fused to the 3′ end of cDNA encoding full length PD1 (amino acids 1-288). Transfected cells were selected for resistance to the selectable markers Hygromycin and Blasticidin to create a stable cell line that contained the PD1-FL/Firefly Luciferase cDNA insert whose expression was regulated under the T-REx™ system. The day before assay, cells were trypsinized and plated in 384-well tissue culture plates. The next day, compound dilutions in DMSO/media containing doxycycline were added to the wells and incubated at 37° C., 5% CO2.
For chemical structures that include one or more stereoisomers, but are illustrated without indicating stereochemistry, the assay data refers to a mixture of stereoisomers.

[2] = system: full length IL-2 (amino acids 1-153) fused to Gaussia Luciferase; test: Dox Induced IL2-FL-Gluc Assay; format: cell-based; conditions: 24 hr, 293FRT/TO; read-out: 24 hr Dox Inducible IL2FLGluc 293FRT/TO: Mean IC50
Procedure, shortened: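 Flp-In 293 T-REx stable line expressing full-length IL-2 (aa 1-153) with C-terminal Gaussia luciferase fusion under doxycycline-inducible control. Cells plated the day before; compound dilutions added in DMSO/media containing doxycycline, incubated at 37° C, 5% CO2.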

[3] = In Vitro Microsome Stability Assay (human); format: in vitro ADME; conditions: human, 30 min, NADPH
Procedure, shortened: (§1)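 Species liver microsomes in potassium phosphate buffer were preincubated at 37 °C for 3–5 min with test compound (added from 0.25 mM DMSO stock), then started with NADPH. Samples at 0 and 30 min were quenched with acetonitrile containing internal standard and analysed by LC-MS/MS; % remaining at 30 min used analyte/IS AUC ratios relative to t=0.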

[4] = system: multiple myeloma cell line NCl-H929; test: H929 Cell Viability Assay; format: cell-based, human; conditions: Homo sapiens, NCI-H929, 48 h, H929, read-out: 48 hr H929 Viability Celltiter-Glo: Mean EC50
Procedure, shortened: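 NCI-H929 myeloma cells in RPMI 1640 with 10% FBS were treated with compound dilutions for 48 h at 37 °C, and viability was then read by CellTiter-Glo luminescence. Compounds drawn without stereochemistry were tested as stereoisomer mixtures.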

[5] = system: PD1 signal sequence plus 10 amino acids fused to Gaussia Luciferase (PD1-ss+10aa/Gaussia Luciferase); test: Dox Induced PD1-ss-Gluc Assay; format: cell-based; conditions: 24 hr, 293FRT/TO; read-out: 24 hr Dox Inducible PD1ssGluc 293FRT/TO: Mean IC50
Procedure, shortened: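 Stable Flp-In 293 T-REx line expressing the fusion under tetracycline-inducible control, plated the day before assay. Compound dilutions added with doxycycline and incubated at 37 °C, 5% CO2; unspecified stereocentres mean data refer to stereoisomer mixtures.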

[6] = In Vitro Microsome Stability Assay (monkey); format: in vitro ADME; conditions: monkey, 30 min, NADPH
Procedure, shortened: as §1

[7] = In Vitro Microsome Stability Assay (rat); format: in vitro ADME; conditions: rat, 30 min, NADPH
Procedure, shortened: as §1

[8] = In Vitro Microsome Stability Assay (mouse); format: in vitro ADME; conditions: mouse, 30 min, NADPH
Procedure, shortened: as §1

[9] = system: multiple myeloma cell line U266B1; test: U266 Cell Viability Assay; format: cell-based, human; conditions: Homo sapiens, U-266; 48 hr, U266; read-out: 48 hr U266 Viability Celltiter-Glo: Mean EC50
Procedure, shortened: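 U266B1 myeloma cells in RPMI 1640 with 10% FBS were treated with compound dilutions for 48 h at 37° C, 5% CO2. Viability was read as CellTiter-Glo luminescence. Data for structures drawn without stereochemistry refer to stereoisomer mixtures.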

[10] = system: full length TNFα (amino acids 1-233) fused to Gaussia Luciferase; test: Dox Induced TNFα-FL-Gluc Assay; format: cell-based; conditions: 24 hr, 293FRT/TO; read-out: 24 hr Dox Inducible TNFaFLGluc 293FRT/TO: Mean IC50
Procedure, shortened: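 Stable Flp-In 293 T-REx line expressing doxycycline-inducible full-length TNFα fused to Gaussia luciferase; cells plated the day before, then treated with compound dilutions in doxycycline-containing medium at 37° C, 5% CO2. Unspecified stereocentres mean stereoisomer mixtures were tested.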

## C=C1CN(S(=O)(=O)c2ccc(C)cc2)CCCN(Cc2ccccc2)CCCN(S(=O)(=O)c2ccc(C)cc2)C1 [A1]
[1]
  pIC50: 5.86
[2]
  pIC50: 5.93
[3]
  Liver Microsome Stability-% Left after 30 min w/ NADPH (%) Human: 0.18%
[4]
  pEC50: < 4.60
[5]
  pIC50: 5.99
[6]
  Liver Microsome Stability-% Left after 30 min w/ NADPH (%) Monkey: 0.18%
[7]
  Liver Microsome Stability-% Left after 30 min w/ NADPH (%) Rat: 0.12%
[8]
  Liver Microsome Stability-% Left after 30 min w/ NADPH (%) Mouse: 0.21%
[9]
  pEC50: < 4.60
[10]
  pIC50: < 4.60

## C=C1CN(S(=O)(=O)c2ccc(C)cc2)CCCN(CC2CCCCC2)CCCN(S(=O)(=O)c2ccc(OC)cc2)C1 [A3]
[1]
  pIC50: 6.20
[3]
  Liver Microsome Stability-% Left after 30 min w/ NADPH (%) Human: 0.25%
[4]
  pEC50: 5.29
[5]
  pIC50: 6.62
[6]
  Liver Microsome Stability-% Left after 30 min w/ NADPH (%) Monkey: 0.83%
[7]
  Liver Microsome Stability-% Left after 30 min w/ NADPH (%) Rat: 0.37%
[8]
  Liver Microsome Stability-% Left after 30 min w/ NADPH (%) Mouse: 0.09%
[9]
  pEC50: < 4.60
[10]
  pIC50: 4.94

## C=C1CN(S(=O)(=O)c2ccc(C)cc2)CCCN(CC2CCCCC2)CCCN(S(=O)(=O)c2ccc(N(C)C)cc2)C1 [A4]
[1]
  pIC50: 6.51
[3]
  Liver Microsome Stability-% Left after 30 min w/ NADPH (%) Human: 0.25%
[4]
  pEC50: 5.91
[5]
  pIC50: 7.03
[6]
  Liver Microsome Stability-% Left after 30 min w/ NADPH (%) Monkey: 1.17%
[7]
  Liver Microsome Stability-% Left after 30 min w/ NADPH (%) Rat: 1.17%
[8]
  Liver Microsome Stability-% Left after 30 min w/ NADPH (%) Mouse: 0.56%
[9]
  pEC50: < 4.60
[10]
  pIC50: 5.42

## Cc1ccc(S(=O)(=O)N2CCCN(CC3CCCCC3)CCCN(S(=O)(=O)c3ccc(N(C)C)cc3)CC3(CC3)C2)cc1 [A11, 4-{[9-(cyclohexylmethyl)-13-(4-methylbenzenesulfonyl)-5,9,13-triazaspiro[2.11]tetradecan-5-yl]sulfonyl}-N,N-dimethylaniline hydrochloride]
[1]
  pIC50: 6.06
[2]
  pIC50: 6.21
[3]
  Liver Microsome Stability-% Left after 30 min w/ NADPH (%) Human: 0.21%
[4]
  pEC50: < 4.60
[5]
  pIC50: 6.44
[6]
  Liver Microsome Stability-% Left after 30 min w/ NADPH (%) Monkey: 0.08%
[7]
  Liver Microsome Stability-% Left after 30 min w/ NADPH (%) Rat: 0.17%
[8]
  Liver Microsome Stability-% Left after 30 min w/ NADPH (%) Mouse: 0.18%
[9]
  pEC50: < 4.60
[10]
  pIC50: < 4.60

## Cc1ccc(S(=O)(=O)N2CCCN(CC3CCCCC3)CCCN(S(=O)(=O)c3ccc(N(C)C)cc3)CCC2)cc1 [A14, 4-((5-(cyclohexylmethyl)-9-tosyl-1,5,9-triazacyclododecan-1-yl)sulfonyl)-N,N-dimethylaniline]
[1]
  pIC50: 5.91
[2]
  pIC50: 5.93
[3]
  Liver Microsome Stability-% Left after 30 min w/ NADPH (%) Human: 0.08%
[4]
  pEC50: < 4.60
[5]
  pIC50: 6.19
[6]
  Liver Microsome Stability-% Left after 30 min w/ NADPH (%) Monkey: 1.4%
[7]
  Liver Microsome Stability-% Left after 30 min w/ NADPH (%) Rat: 1.13%
[8]
  Liver Microsome Stability-% Left after 30 min w/ NADPH (%) Mouse: 5.39%
[9]
  pEC50: < 4.60
[10]
  pIC50: < 4.60

## C=C1CN(S(=O)(=O)c2ccc(N(C)C)cc2)CCCN(CC2CCCCC2)CCCN(S(=O)(=O)N2CCC(c3ccccc3)CC2)C1 [A35, 4-{[9-(cyclohexylmethyl)-3-methylidene-5-[(4-phenylpiperidin-1-yl)sulfonyl]-1,5,9-triazacyclododecan-1-yl]sulfonyl}-N,N-dimethylaniline hydrochloride]
[1]
  pIC50: 6.61
[3]
  Liver Microsome Stability-% Left after 30 min w/ NADPH (%) Human: 24.8%
[4]
  pEC50: < 4.60
[5]
  pIC50: 7.08
[6]
  Liver Microsome Stability-% Left after 30 min w/ NADPH (%) Monkey: 13.6%
[7]
  Liver Microsome Stability-% Left after 30 min w/ NADPH (%) Rat: 30%
[8]
  Liver Microsome Stability-% Left after 30 min w/ NADPH (%) Mouse: 20.9%
[9]
  pEC50: < 4.60
[10]
  pIC50: < 4.92

## C=C1CN(S(=O)(=O)c2c(F)cc(N(C)C)cc2F)CCCN(CC2CCCCC2)CCCN(S(=O)(=O)N2CCC(c3ccccc3)CC2)C1 [A86]
[1]
  pIC50: 6.37
[2]
  pIC50: 6.40
[3]
  Liver Microsome Stability-% Left after 30 min w/ NADPH (%) Human: 41.3%
[4]
  pEC50: 5.25
[6]
  Liver Microsome Stability-% Left after 30 min w/ NADPH (%) Monkey: 29.2%
[7]
  Liver Microsome Stability-% Left after 30 min w/ NADPH (%) Rat: 39.9%
[8]
  Liver Microsome Stability-% Left after 30 min w/ NADPH (%) Mouse: 34.1%
[9]
  pEC50: < 4.60
[10]
  pIC50: < 4.60
